Literature values in article PMC11444200, “In Vitro Evaluation of Antipseudomonal Activity and Safety Profile of Peptidomimetic Furin Inhibitors” (Biomedicines, 2024).
Where two headings read alike, the source gives them in different places.

What was measured:
[1] = test system: CYP3A4; conditions: cited from earlier work
[2] = parameters: method as in PMID 29059503; conditions: cited from earlier work
[3] = test system: mice; conditions: mice, cited from earlier work
[4] = biological target: furin; conditions: read-out: Ki (furin); cited from earlier work
[5] = test system: Mas-related G protein–coupled receptor X2 (MRGPRX2); parameters: method as in PMID 38385828; conditions: compared to MI-1851 and MI-2415; cited from earlier work

N=C(N)c1cccc(C[C@H](NS(=O)(=O)c2cccc(-c3ccc(Cl)cc3Cl)c2)C(=O)N2CCC(CCN)CC2)c1.O=C(O)C(F)(F)F.O=C(O)C(F)(F)F [MI-432]
CYP3A4 inhibition ([1]; compared with MI-1851 and MI-2415): inhibit CYP3A4 already at considerably lower concentrations

CC(C)(C)[C@H](NC(=O)[C@H](CCCN=C(N)N)NC(=O)Cc1ccc(CN=C(N)N)cc1)C(=O)N[C@@H](CCCN=C(N)N)C(=O)NCc1ccc(C(=N)N)cc1 [MI-1148, 4-guanidinomethyl-phenylacetyl-Arg-Tle-Arg-4-Amba, reference compound]
stability in human plasma [2]: high stability | mortality ([3]; 5 mg/kg i.p.): all four mice died | maximum tolerated dose ([3]; i.p.): 2.5 mg/kg | Ki [4]: 5.5 pM | activation of MRGPRX2 [5]: much stronger activation

COc1ccc(-c2cccc(S(=O)(=O)N[C@@H](Cc3cccc(C(=N)N)c3)C(=O)N3CCN(C(=O)NC4CCCCC4)CC3)c2)c(OC)c1 [MI-1900]
CYP3A4 inhibition [1]: inhibit CYP3A4 already at considerably lower concentrations
